Assay results from patent publication US20160374911A1, “PLANT EXTRACT COMPOSITION FOR SKIN WHITENING AND REDUCING MELANIN AS WELL AS APPLICATION THEREOF” (CALIWAY BIOPHARMACEUTICALS CO., LTD., priority 2015, published 2016).

Target: T1, tyrosinase activity in mouse melanoma B16-F10 cells (Mus musculus, UniProt P11344)
T1 construct: Mouse melanoma B16-F10 cells were used; endogenous in cells; host or cells: mouse melanoma B16-F10 cells
T1 sequence (P11344 19-533): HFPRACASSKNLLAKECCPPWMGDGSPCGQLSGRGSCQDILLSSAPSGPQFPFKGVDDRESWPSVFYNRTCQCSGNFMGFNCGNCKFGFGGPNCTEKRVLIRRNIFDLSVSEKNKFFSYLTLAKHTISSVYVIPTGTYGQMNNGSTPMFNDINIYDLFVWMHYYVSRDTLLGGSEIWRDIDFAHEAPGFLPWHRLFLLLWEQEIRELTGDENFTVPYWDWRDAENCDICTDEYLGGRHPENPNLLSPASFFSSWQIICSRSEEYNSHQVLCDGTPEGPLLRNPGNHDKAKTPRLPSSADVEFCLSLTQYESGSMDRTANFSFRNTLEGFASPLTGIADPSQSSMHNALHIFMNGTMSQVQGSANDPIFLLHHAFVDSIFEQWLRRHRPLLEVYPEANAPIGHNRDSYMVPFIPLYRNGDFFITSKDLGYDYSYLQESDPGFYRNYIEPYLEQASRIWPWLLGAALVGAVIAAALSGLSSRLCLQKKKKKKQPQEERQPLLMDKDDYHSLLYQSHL
Test: Inhibition of tyrosinase (melanogenesis induction firstly, then administration), L-DOPA conversion
Format: cell-based
Details: 250 ppm arbutin, 6 ppm resveratrol, 8 ppm curcumin, 8 ppm compositions; 48 hours after α-MSH; absorbance 405 nm within 60 minutes

Structure (SMILES): COc1cc(/C=C/C(=O)CC(=O)/C=C/c2ccc(O)c(OC)c2)ccc1O [curcumin]
- activity of tyrosinase compared with control group (in words): reduced the activity of tyrosinase

Structure (SMILES): OC[C@H]1O[C@@H](Oc2ccc(O)cc2)[C@H](O)[C@@H](O)[C@@H]1O [arbutin]
- activity of tyrosinase compared with control group (in words): reduced the activity of tyrosinase
